≈ marks a conversion by molar mass, not a printed value.
Tests used:
[1] = In vitro antibacterial activity against gram-negative organism Pseudomonas aeruginosa 5007; format: functional
[2] = target: T1, DNA gyrase (Escherichia coli) (UniProt P0AES6+P0AES4); experiment: In vitro antibacterial activity against gram-negative organism Klebsiella pneumoniae ATCC 8045; format: functional
[3] = target: T1, DNA gyrase (Escherichia coli); experiment: In vitro antibacterial activity against gram-negative organism […] ATCC 13048; format: functional; details: Enterobacter aerogenes
Streptococcus pyogenes = experiment: In vitro antibacterial activity against gram-positive organism Streptococcus pyogenes EES61; format: functional; details: Streptococcus pyogenes; read-out: MIC
[4] = In vitro antibacterial activity against gram-negative organism Pseudomonas aeruginosa DPHD-2862; format: functional
[5] = target: T1, DNA gyrase (Escherichia coli); experiment: In vitro antibacterial activity against gram-negative organism Prov. stuartii CMX-640; format: functional; details: Providencia stuartii
[6] = Maximum plasma concentration in rats after an oral dose of 5 mg/kg; details: rat
[7] = target: T1, DNA gyrase (Escherichia coli); experiment: In vitro antibacterial against gram-negative organism Escherichia coli JUHL; format: functional; details: Escherichia coli K-12
[8] = target: T1, DNA gyrase (Escherichia coli); details: Escherichia coli K-12
Description: Concentration which causes 50% of the gyrase (Escherichia coli H560)-mediated maximal DNA cleavage.

in vivo [9] = details: rat, plasma, po, 5 mg/kg
[10] = target: T2, DNA gyrase (Staphylococcus aureus) (UniProt P0A0K8+P20831); experiment: In vitro antibacterial activity against gram-positive organism Staphylococcus aureus NCTC-10649M; format: functional
[11] = target: T1, DNA gyrase (Escherichia coli); experiment: In vitro antibacterial activity against gram-positive organism Streptococcus bovis A-5169; format: functional; details: Streptococcus equinus
[12] = target: T2, DNA gyrase (Staphylococcus aureus); experiment: In vitro antibacterial activity against gram-positive organism Staphylococcus aureus ATCC 6538p; format: functional
physchem = details: phosphate buffer, pH 7.4
Description: Aqueous solubility in pH 7.4 phosphate buffer (0.05 M) at 37 degree C

[13] = target: T1, DNA gyrase (Escherichia coli); experiment: In vitro antibacterial activity against gram-positive organism Enterococcus faecium ATCC 8043; format: functional
in vivo [14] = details: rat, po, 5 mg/kg
Description: Oral bioavailability in rat (dose 5 mg/kg)

[15] = target: T2, DNA gyrase (Staphylococcus aureus); experiment: In vitro antibacterial activity against gram-positive organism Staphylococcus aureus 1775; format: functional
Streptococcus pneumoniae [16] = experiment: In vivo efficacy against Strep. administered; format: functional
Pseudomonas aeruginosa [17] = experiment: In vivo efficacy against Pseudomonas aeruginosa 5007 following p.o. administration.
in vivo [18] = details: rat, plasma, po, 5 mg/kg; remark: listed apart in the source
[19] = In vivo efficacy against Pseudomonas aeruginosa 5007 after subcutaneous administration; format: functional
[20] = target: T1, DNA gyrase (Escherichia coli); experiment: In vivo efficacy against Escherichia coli JUHL after oral administration; format: functional, organism-based; details: Escherichia coli K-12
Streptococcus pneumoniae [21] = experiment: (§1) In vivo efficacy against Strep. administration; format: functional
[22] = target: T2, DNA gyrase (Staphylococcus aureus); experiment: In vivo efficacy against Staphylococcus aureus NCTC-10649M after subcutaneous administration; format: functional, organism-based
[23] = target: T1, DNA gyrase (Escherichia coli); experiment: In vivo efficacy against Escherichia coli JUHL by subcutaneous administration; format: functional, organism-based; details: Escherichia coli K-12
[24] = target: T2, DNA gyrase (Staphylococcus aureus); experiment: (§2) In vivo efficacy against Staphylococcus aureus NCTC-10649M after oral administration; format: functional, organism-based
Pseudomonas aeruginosa [25] = experiment: In vivo efficacy against Pseudomonas aeruginosa 5007 by orally administered.; format: functional
Staphylococcus aureus = experiment: as §2; format: functional
Streptococcus equinus = experiment: In vitro antibacterial activity against gram-positive organism Strep. bovis A-5169; format: functional
Streptococcus pneumoniae [26] = experiment: as §1; format: functional; remark: listed apart in the source
Enterococcus faecium = experiment: In vitro antibacterial activity against gram-positive organism Enterococcus faecium ATCC 8043
[27] = Pseudomonas aeruginosa, read-out: MIC
[28] = Streptococcus pneumoniae, read-out: ED50
[29] = Pseudomonas aeruginosa, sc, read-out: ED50

| Structure (SMILES) | MIC [1, 27] | MIC [2] | MIC [3] | MIC (Streptococcus pyogenes) | MIC [4, 27] | MIC [5] | Cmax [6] | MIC [7] | MIC [10] | MIC [11] | MIC [12] | MIC [13] | MIC [15] | ED50 (Pseudomonas aeruginosa [17]) | ED50 [20] | ED50 [22] | ED50 [23] | ED50 [24] | CC50 [8] | ED50 [19, 29] | other results |
| --- | --- | --- | --- | --- | --- | --- | --- | --- | --- | --- | --- | --- | --- | --- | --- | --- | --- | --- | --- | --- | --- |
| Cc1c(N2C[C@@H]3CCN[C@@H]3C2)c(F)cn2c(=O)c(C(=O)O)cc(C3CC3)c12 (stereo in doubt; (S,S)45o) |  |  |  |  |  |  |  |  |  |  |  |  |  |  |  |  |  |  |  |  | MIC [1]: 0.2 µg/mL (≈ 0.538 µM); ED50 (Streptococcus pneumoniae [16]): 2.3 mg/kg; MIC [4]: 3.1 µg/mL (≈ 8.35 µM); ED50 (Pseudomonas aeruginosa [25]): >50 mg/kg; ED50 [19]: 18 mg/kg; ED50 (Streptococcus pneumoniae [21]): 11.2 mg/kg |
| Cc1c(N2CC[C@@H](O)C2)c(F)cn2c(=O)c(C(=O)O)cc(C3CC3)c12 | 0.78 µg/mL (≈ 2.25 µM) | 0.02 µg/mL (≈ 0.0577 µM) | 0.2 µg/mL (≈ 0.577 µM) |  | 25 µg/mL (≈ 72.2 µM) | 0.78 µg/mL (≈ 2.25 µM) |  | 0.1 µg/mL (≈ 0.289 µM) | 0.02 µg/mL (≈ 0.0577 µM) |  | 0.02 µg/mL (≈ 0.0577 µM) | 0.2 µg/mL (≈ 0.577 µM) | 1.56 µg/mL (≈ 4.5 µM) |  |  | 6.1 mg/kg |  | 11.2 mg/kg |  |  | MIC (Streptococcus equinus): 0.2 µg/mL (≈ 0.577 µM); ED50 (Streptococcus pneumoniae [26]): > 2 mg/kg |
| NC1CCN(c2nc3c(-c4ccc(F)cc4F)cc(C(=O)O)c(=O)n3cc2F)C1 (stereo not given) | 0.39 µg/mL (≈ 0.965 µM) | 0.02 µg/mL (≈ 0.0495 µM) | 0.05 µg/mL (≈ 0.124 µM) | 0.39 µg/mL (≈ 0.965 µM) | 100 µg/mL (≈ 247 µM) | 1.56 µg/mL (≈ 3.86 µM) |  | 0.02 µg/mL (≈ 0.0495 µM) | 0.1 µg/mL (≈ 0.247 µM) | 1.56 µg/mL (≈ 3.86 µM) | 0.1 µg/mL (≈ 0.247 µM) |  | > 100 µg/mL | 42.1 mg/kg | 5.6 mg/kg | 4.4 mg/kg | 1 mg/kg | 12 mg/kg | 0.5 µg/mL (≈ 1.24 µM) | 10.3 mg/kg | MIC (Enterococcus faecium): 0.78 µg/mL (≈ 1.93 µM) |

More lines, main results first:

| MIC [1, 27] | MIC [2] | MIC [3] | MIC (Streptococcus pyogenes) | MIC [4, 27] | MIC [5] | Cmax [6] | MIC [7] | MIC [10] | MIC [11] | MIC [12] | MIC [13] | MIC [15] | ED50 (Pseudomonas aeruginosa [17]) | ED50 [20] | ED50 [22] | ED50 [23] | ED50 [24] | Structure (SMILES) | CC50 [8] | ED50 [19, 29] | other results |
| --- | --- | --- | --- | --- | --- | --- | --- | --- | --- | --- | --- | --- | --- | --- | --- | --- | --- | --- | --- | --- | --- |
| 0.2 µg/mL (≈ 0.556 µM) | 0.01 µg/mL (≈ 0.0278 µM) | 0.05 µg/mL (≈ 0.139 µM) | 0.05 µg/mL (≈ 0.139 µM) | 3.1 µg/mL (≈ 8.63 µM) | 0.78 µg/mL (≈ 2.17 µM) | 740 ng/mL | 0.005 µg/mL (≈ 0.0139 µM) | 0.01 µg/mL (≈ 0.0278 µM) | 0.05 µg/mL (≈ 0.139 µM) | 0.01 µg/mL (≈ 0.0278 µM) | 0.1 µg/mL (≈ 0.278 µM) | 1.56 µg/mL (≈ 4.34 µM) |  |  |  |  |  | Cc1c(N2C[C@@H](N)C[C@@H]2C)c(F)cn2c(=O)c(C(=O)O)cc(C3CC3)c12 | 0.2 µg/mL (≈ 0.556 µM) |  | half-life (in vivo [9]): 1.6 h; solubility (physchem): 70 µg/mL (≈ 195 µM); bioavailability (in vivo [14]): 44% |
| 0.39 µg/mL (≈ 1.05 µM) | 0.02 µg/mL (≈ 0.0538 µM) | 0.05 µg/mL (≈ 0.135 µM) | 0.1 µg/mL (≈ 0.269 µM) | 3.1 µg/mL (≈ 8.35 µM) | 1.56 µg/mL (≈ 4.2 µM) | 330 ng/mL | 0.001 µg/mL (≈ 0.00269 µM) | 0.05 µg/mL (≈ 0.135 µM) | 0.1 µg/mL (≈ 0.269 µM) | 0.05 µg/mL (≈ 0.135 µM) | 0.1 µg/mL (≈ 0.269 µM) | 6.2 µg/mL (≈ 16.7 µM) | 42.8 mg/kg | 3.6 mg/kg | 1.8 mg/kg | 1.1 mg/kg | 3.6 mg/kg | Cc1c(N2CC[C@@H]3CNC[C@@H]32)c(F)cn2c(=O)c(C(=O)O)cc(C3CC3)c12 | 0.4 µg/mL (≈ 1.08 µM) | > 8 mg/kg | ED50 (Streptococcus pneumoniae [16]; [28]): 6.4 mg/kg; half-life (in vivo [18]): 5.7 h; ED50 (Streptococcus pneumoniae [21]; [28]): 9.5 mg/kg; solubility (physchem): 1940 µg/mL (≈ 5220 µM); bioavailability (in vivo [14]): 41% |
| 0.2 µg/mL (≈ 0.536 µM) | 0.001 µg/mL (≈ 0.00268 µM) | 0.01 µg/mL (≈ 0.0268 µM) | 0.005 µg/mL (≈ 0.0134 µM) | 6.2 µg/mL (≈ 16.6 µM) | 0.78 pug ml-1 |  | 0.001 µg/mL (≈ 0.00268 µM) | 0.002 µg/mL (≈ 0.00536 µM) | 0.01 µg/mL (≈ 0.0268 µM) | 0.002 µg/mL (≈ 0.00536 µM) | 0.01 µg/mL (≈ 0.0268 µM) | 0.39 µg/mL (≈ 1.04 µM) | 24.4 mg/kg | 5.7 mg/kg | < 0.2 mg/kg | 0.5 mg/kg |  | Cc1c(N2CC[C@@H]([C@@H](C)N)C2)c(F)cn2c(=O)c(C(=O)O)cc(C3CC3)c12 | 0.4 µg/mL (≈ 1.07 µM) | 5.4 mg/kg | ED50 (Staphylococcus aureus): 1.1 mg/kg |

— ChEMBL document CHEMBL1129258, “Synthesis and structure-activity relationships of 2-pyridones: a novel series of potent DNA gyrase inhibitors as antibacterial agents” (J Med Chem, 1996)
